Values after ≈ are worked out from the molar mass of the structure shown. Like-named read-outs stand apart in the source and are kept apart here.
Key:
[1] = test system: H37Rv strain of Mycobacterium tuberculosis; test: microbe, parasite or virus in culture; assay type: cell-based; details: for inhibition at 50 µg/mL / inhibition at 100 µg/mL / inhibition at 2 µg/mL: H37RV; for inhibition at 50 µg/mL / inhibition at 100 µg/mL / % Inhibition ± SD: LRP assay; for inhibition at 50 µg/mL / inhibition at 100 µg/mL: read-out: % Inhibition ± SD
in vitro = assay type: cell-based; details: human
Method: HEK293 cells were grown in DMEM media containing 10% FBS and L-glutamine–penicillin–streptomycin solution at 37 °C in 5% CO2 condition. To perform MTT assay, 96 well tissue culture plate was seeded with […] number of cells. After 16 hours of seeding, cells were successfully attached to the culture plate and were treated with the active chemical compounds dissolved in DMSO at different concentrations as follows: 25 μg ml^−1, 50 μg ml^−1, 75 μg ml^−1 and 100 μg ml^−1. The cells were also treated with the DMSO to exclude the solvent-induced toxicity and used as an internal control. After 48 hours post active chemical compounds treatment, the MTT assay was performed as described previously.[45] MG-132, a potent proteasomal inhibitor and an inducer of apoptosis[46,47] was used as a positive control in the assay. Wells with media lacking any cells were as used as a negative control in the assay.
Tetrazolium-based […] cytotoxicity (MTT) assay is an important method to evaluate the viability of cells and it was performed for all the active chemical compounds using HEK293. To illustrate the percentage cell viability, the HEK293 cells were incubated with different concentrations of all active chemical compounds for 48 h. The compounds showing the viability of less than 50% of the cells were considered cytotoxic compounds. We observed that maximum compounds (such as 7, 9, 10, 13 and 25) show more than 75% of the cell viability at the highest concentration i.e. 100 μg ml^−1 for 48 hours of the treatment. Similarly, other compounds (such as 5, 6, 22, 26 and 31) show 70% cell viability upon 48 hours of the treatment. […] MG-132, a potent proteasomal inhibitor and an inducer of apoptosis was used as a positive control in the assay.

[2] = Mycobacterium tuberculosis, 50 µg/ml, M. Tb H37Rv
[3] = Mycobacterium tuberculosis, 100 µg/ml, M. Tb H37Rv

Row | SMILES | inhibition at 50 µg/mL [1, 2] | inhibition at 100 µg/mL [1, 3] | melting point | further results
1 | C#CCOc1ccc(/C=N/Nc2nc(-c3ccc(Br)cc3)cs2)cc1OCC [Compound 20] | 7.35 ± 0.22% | 12.1 ± 0.36% | – | –
2 | C#CCOc1ccc(Br)cc1/C=N/NC(N)=S [Compound 6] | 51.2 ± 1.53% | 56.9 ± 1.7% | 204 to 206 °C | viability at 48 h, 100 μg ml^−1 (in vitro): 70%
3 | C#CCOc1ccc(Br)cc1/C=N/Nc1nc(-c2ccc(C)cc2)cs1 [Compound 31] | 54.9 ± 1.64% | 56.3 ± 1.68% | 191 to 193 °C | % Inhibition ± SD ([1]; 50 µg/ml, M. Tb H37Rv): 54%; viability at 48 h, 100 μg ml^−1 (in vitro): 70%
4 | C#CCOc1ccc(Br)cc1/C=N/Nc1nc(-c2ccc(C#N)cc2)cs1 [Compound 30] | 43.7 ± 1.31% | 48.7 ± 1.46% | 199 to 201 °C | –
5 | C#CCOc1ccccc1/C=N/Nc1nc(-c2ccc(C#N)cc2)cs1 [Compound 13] | 54.3 ± 1.62% | – | 150 to 152 °C | viability at 48 h, 100 μg ml^−1 (in vitro): > 75%
6 | C#CCOc1ccc(/C=N/Nc2nc(-c3ccc(Cl)cc3)cs2)cc1OCC [Compound 18] | 6.36 ± 0.19% | 17.8 ± 0.53% | – | –
7 | C#CCOc1ccccc1/C=N/Nc1nc(-c2ccc(C)cc2)cs1 [Compound 14] | 38.2 ± 1.14% | – | – | –
8 | C#CCOc1ccc(/C=N/Nc2nc(-c3ccc(OC)cc3)cs2)cc1OCC [Compound 24] | 5.64 ± 0.16% | 33 ± 0.98% | 183 to 185 °C | –
9 | C#CCOc1ccc(Br)cc1/C=N/Nc1nc(-c2ccc(Br)cc2)cs1 [Compound 29] | 27.1 ± 0.81% | 37.2 ± 1.11% | 208 to 210 °C | –
10 | C#CCOc1ccc(Br)cc1/C=N/Nc1nc(-c2ccccc2)cs1 [Compound 25] | 61% | 66.2 ± 1.98% | 195 to 197 °C | % Inhibition ± SD ([1]; 50 µg/ml, M. Tb H37Rv): 61.86 ± 1.85%; MIC ([1]; Mycobacterium tuberculosis, concentration giving 50% inhibition of M. Tb H37Rv): 50 µg/mL (≈ 121 µM); viability at 48 h, 100 μg ml^−1 (in vitro): > 75%
11 | C#CCOc1ccc(/C=N/Nc2nc(-c3ccc(C#N)cc3)cs2)cc1OCC [Compound 22] | 50.9 ± 1.52% | 57.2 ± 1.71% | – | viability at 48 h, 100 μg ml^−1 (in vitro): 70%
12 | C#CCOc1ccc(Br)cc1/C=N/Nc1nc(-c2ccc(F)cc2)cs1 [Compound 26] | 50.7 ± 1.52% | 57.7 ± 1.73% | 207 to 209 °C | viability at 48 h, 100 μg ml^−1 (in vitro): 70%
13 | C#CCOc1ccccc1/C=N/Nc1nc(-c2ccc(Cl)cc2)cs1 [Compound 9] | 50.8 ± 1.52% | – | 160 to 164 °C | viability at 48 h, 100 μg ml^−1 (in vitro): > 75%
14 | C#CCOc1ccc(/C=N/Nc2nc(-c3ccc(F)cc3)cs2)cc1OCC [Compound 17] | 2.06 ± 0.06% | 11.4 ± 0.34% | 152 to 154 °C | –
15 | C#CCOc1ccc(C=O)cc1OCC [Compound 2] | 7.73 ± 0.23% | 8.08 ± 0.24% | 74 to 75 °C | –
16 | CO[C@H]1/C=C/O[C@@]2(C)Oc3c(C)c(O)c4c(O)c(c(/C=N/N5CCN(C)CC5)c(O)c4c3C2=O)NC(=O)/C(C)=C\C=C\[C@H](C)[C@H](O)[C@@H](C)[C@@H](O)[C@@H](C)[C@H](OC(C)=O)[C@@H]1C [RIF, rifampicin, reference compound] | – | – | – | inhibition at 2 µg/mL ([1]; Mycobacterium tuberculosis): > 99%
17 | C#CCOc1ccc(/C=N/Nc2nc(-c3ccc(C)cc3)cs2)cc1OCC [Compound 23] | 8.72 ± 0.26% | 10.5 ± 0.31% | 166 to 168 °C | –

Row | SMILES | inhibition at 50 µg/mL [1, 2] | inhibition at 100 µg/mL [1, 3] | melting point | further results
18 | C#CCOc1ccc(Br)cc1/C=N/Nc1nc(-c2ccc(Cl)c(Cl)c2)cs1 [Compound 28] | 43.8 ± 1.31% | 50.2 ± 1.5% | 213 to 215 °C | % Inhibition ± SD ([1]; 100 µg/ml, M. Tb H37Rv): 50%
19 | C#CCOc1ccccc1/C=N/Nc1nc(-c2ccccc2)cs1 [Compound 7] | 51.7 ± 1.54% | – | 183 to 185 °C | viability at 48 h, 100 μg ml^−1 (in vitro): > 75%
20 | NNC(=O)c1ccncc1 [INH, isoniazid, reference compound] | – | – | – | inhibition at 2 µg/mL ([1]; Mycobacterium tuberculosis, at 2 µg/ml, reference drugs, M. Tb H37Rv, read-out: % Inhibition): > 99%
21 | C#CCOc1ccccc1/C=N/Nc1nc(-c2ccc(F)cc2)cs1 [Compound 8] | 38 ± 1.14% | – | 180 to 182 °C | –
22 | C#CCOc1ccc(Br)cc1C=O [Compound 3] | 48.7 ± 1.46% | 50.9 ± 1.52% | 92 to 93 °C | –
23 | C#CCOc1ccccc1/C=N/NC(N)=S [Compound 4] | 46.8 ± 1.4% | – | 174 to 176 °C | antitubercular activity against M. Tb (active = 50% RLU reduction and above) ([1]; concentration not given): inactive
24 | C#CCOc1ccc(/C=N/Nc2nc(-c3ccc(Cl)c(Cl)c3)cs2)cc1OCC [Compound 19] | 2.38 ± 0.07% | 7.21 ± 0.21% | 153 to 155 °C | –
25 | C#CCOc1ccc(Br)cc1/C=N/Nc1nc(-c2ccc(Cl)cc2)cs1 [Compound 27] | 38.1 ± 1.14% | 52.7 ± 1.58% | 209 to 211 °C | % Inhibition ± SD ([1]; 100 µg/ml, M. Tb H37Rv): 50%
26 | C#CCOc1ccc(/C=N/Nc2nc(-c3ccccc3)cs2)cc1OCC [Compound 16] | 40.5 ± 1.21% | 48.7 ± 1.46% | – | –
27 | C#CCOc1ccc(/C=N/Nc2nc(-c3ccc([N+](=O)[O-])cc3)cs2)cc1OCC [Compound 21] | 48.7 ± 1.46% | 50.9 ± 1.52% | 191 to 193 °C | –
28 | C#CCOc1ccccc1/C=N/Nc1nc(-c2ccc(Br)cc2)cs1 [Compound 11] | 49.1 ± 1.47% | – | 144 to 146 °C | –
29 | C#CCOc1ccccc1C=O [Compound 1] | 39.3 ± 1.17% | – | – | –
30 | C#CCOc1ccccc1/C=N/Nc1nc(-c2ccc([N+](=O)[O-])cc2)cs1 [Compound 12] | 29.1 ± 0.87% | – | 185 to 187 °C | –
31 | C#CCOc1ccccc1/C=N/Nc1nc(-c2ccc(OC)cc2)cs1 [Compound 15] | 10.3 ± 0.3% | – | 181 to 183 °C | –
32 | C#CCOc1ccccc1/C=N/Nc1nc(-c2ccc(Cl)c(Cl)c2)cs1 [Compound 10] | 52 ± 1.56% | – | – | viability at 48 h, 100 μg ml^−1 (in vitro): > 75%
33 | C#CCOc1ccc(Br)cc1/C=N/Nc1nc(-c2ccc(OC)cc2)cs1 [Compound 32] | 43.7 ± 1.31% | 48.7 ± 1.46% | 184 to 187 °C | –
